The source of these data is US20190000803A1, “CHONDROITIN COMPLEXES FOR TRANSCUTANEOUS ABSORPTION” (Altergon S.A., priority 2012, published 2019).

Data set [1] is described as follows: Dialysis equilibrium study of diclofenac release from diclofenac-chondroitin complexes. In kind it is physicochemical. As to conditions: 2 KDa cut-off, 100 mL in 2 L water, 25° C.
The nature of data set [2]: Absorption of ketorolac by human skin using the Franz cell. Format: in vitro ADME. Conditions: compared with absence of the polysaccharide.
Experimental: 10 mg of the following gels was applied to the skin surface: a) tromethamine ketorolac salt gel (per gram of gel: 100 mg of polyethylene glycol, 1 mg of benzyl alcohol, 200 mg of tromethamine ketorolac salt and water q.s. for 1 g, dissolved at 50° C. under vigorous stirring); b) tromethamine ketorolac salt-chondroitin gel (0.535 moles of tromethamine ketorolac salt/mole of disaccharide chondroitin units; per gram of gel: 100 mg of polyethylene glycol, 1 mg of benzyl alcohol, 200 mg of chondroitin MW 62 KDa, 100 mg of tromethamine ketorolac salt and water q.s. for 1 g, dissolved at 50° C. under vigorous stirring).
The quantity of ketorolac present in the skin washing solution (unabsorbed part), in the enzymatic tissue digestate (part absorbed by the skin) and in the receptor fluid (part that crossed the skin structure) was determined quantitatively by HPLC. The tests were conducted on a Waters model 746 (USA) HPLC, equipped with a μ-bondapack C18 column (150×4.6 millimetres). A solution of acetonitrile, deionised water and orthophosphoric acid (45:54.5:0.5 in vol.), with a final pH of 3.5, was used as mobile phase, operating with a flow rate of 1 mL/min. The eluate was monitored at 280 nm. Quantitation was performed by measuring the ratios between the peak area of ketorolac and the peak area of the internal standard, consisting of a naproxen solution with a known titre.
Data set [3] is described as follows: In vivo transcutaneous absorption of diclofenac gels in nude mice. Set-up: species or system Charles River nude mice. Conditions: conclusion from tables 8-10. The protocol: During the study the animals were kept in individual cages, with unrestricted access to food and water.
The animals were euthanised 1, 5 and 10 h after the application, as reported in the trial design in table 7. Immediately after euthanisation the gel application area was washed thoroughly to discriminate between the radioactivity applied and the radioactivity absorbed by the skin. The treated skin areas, liver and blood were recovered from the euthanised animals, and the samples were weighed and frozen immediately after removal. The urine of the animals was recovered from the cages by washing.

Data set [4] can be described thus: Absorption of diclofenac by human skin using the Franz cell. In kind it is in vitro ADME. Conditions: compared with absence of the polysaccharide or presence of chondroitin sulphate.
Experimental: The skin was frozen to −20° C. immediately after removal, and kept at that temperature until the time of use. Before being placed in the Franz cells, the frozen skin was cleaned of subcutaneous fat, so that only the stratum corneum, the epidermis and the dermis were used, and cut to a size suitable for positioning in the Franz cell, with the stratum corneum facing upwards. Before the study began, the cell was maintained at 30° C. for 10 h with continual stirring of the receptor solution consisting of 10 mL of HBSS (Hank's Buffered Saline Solutions). The surface on which the formulation was deposited measured about 3 cm^2. Before application of the gel in the cells, the receptor solution was replaced, taking care to eliminate all air bubbles between skin and solution.
At the indicated times the receptor phase was recovered and the skin surface was washed thoroughly to remove all the unabsorbed gel. The skin was recovered, homogenised and digested for 10 h under stirring at 30° C. with collagenase (5,200 I/g of skin) in 10 mM of phosphate buffer pH 7.4. At the end of the incubation, 0.4 volumes of ethanol were added and the mixture was centrifuged at 10,000 rpm for 20 min. […] The eluate was monitored at 276 nm.
Data set [5] can be described thus: Topical absorption and distribution of [3H]chondroitin gels in nude mice. In kind it is in vivo, Charles River nude mice. The protocol: 60 five-month-old Charles River nude mice of both sexes were used as experimental model to evaluate the transcutaneous absorption of chondroitin. The animals were randomised into 12 groups of 5 which, as reported in the study design in table 1, were treated with 50 mg of [^3H]chondroitin gel with different MWs, prepared as described in example 1. During the study the animals were kept in individual cages, with unrestricted access to food and water.
The animals were euthanised 1, 5, 10 and 20 h after the application, as reported in the trial design in table 1. Immediately after euthanisation the gel application area was thoroughly washed until no detectable traces of radioactivity remained in the washing water, in order to discriminate between the radioactivity applied and the radioactivity absorbed by the skin. The treated skin areas, liver and blood were recovered from the euthanised animals, and the samples were weighed and frozen immediately after removal. The urine of the animals was recovered from the cages by washing.
Skin, liver and blood samples (150-200 mg) were solubilised in Soluene […] at ambient temperature. The radioactivity was measured by liquid-phase scintillation on the solubilised samples and the urine.

For data set [6] the following is noted: Franz cell, human skin; cited from earlier work.

On to `O=C(O)Cc1ccccc1Nc1c(Cl)cccc1Cl` [Diclofenac only, 2-(2-[2,6-dichlorophenylamino]phenyl) ethanoic acid], for which the “% OD275 present in the dialysis medium” value in data set [1] (1 h) worked out at 85%; in data set [1] (2 h) it was 94%; in data set [1] (4 h), 96%; in data set [1] (8 h), 95%; in data set [1] (16 h) it was 96%.

Turning to chondroitin, in data set [2], the “absorption of ketorolac in the presence of chondroitin” value is “increases significantly”. Also, in data set [3], the “acts as transdermal carrier of diclofenac” value was “acts as an efficient transdermal carrier of diclofenac”. In data set [4], the “absorption of diclofenac in the presence of chondroitin” value is reported as “increases significantly”. Also, in data set [5] (skin, 1 h after topical application of 50 mg gel), the “radioactivity in skin, % of dose applied” value was “about 50 % of dose applied”. In addition, the “radioactivity in urine, % of dose applied” value in data set [5] (urine, 20 h) is reported as “about 25 % of dose applied”.

In the case of chondroitin sulphate, the “acts as transdermal carrier of diclofenac” value in data set [3] is recorded as “not”. Besides, the “ability to transport diclofenac and ibuprofen in the skin” value (“ability” for short) in data set [6] is given as “are not”.

On to heparin, for which, in data set [6], the “ability” value is on record as “are not”.

Turning to hyaluronic acid, in data set [6], the “ability” value is “able to transport diclofenac and ibuprofen in the skin”.
